The values below come from a melting point compilation (Tetko et al.; mined from patent text by program, amines drawn as free bases though some values may be those of a salt).

The melting point is the temperature, or range, at which the solid turns liquid. Regarding `CCOC(=O)c1c(-c2ccc(Cl)cc2)[nH]c(C(F)(F)F)c1C(F)(F)F`, the melting point was 138 to 140 °C.
The same measure for `COc1ccc(S(=O)(=O)Nc2ccc(Cl)nc2Nc2ccccc2)cc1`: 206 to 208 °C.
As for `CCN(C)CCOc1ccc(/C=C/C(=O)O)cc1`, the figure is 206 °C; as for `CC(C)(C)c1ccc(C(=O)O)c(C(=O)O)c1`, 148 to 150 °C.
The same measure for `COc1ccc(C2=NN(CCCCCCNC(=O)c3ccccc3C(N)=O)C(=O)[C@H]3CC=CC[C@@H]23)cc1OC` (relative stereo): 104 to 105 °C; for `NC(=O)C1CCc2ccccc2O1` (configuration not stated): 125 to 127 °C.
For `CC(=O)SC(CC(=S)c1ccc(-c2ccccc2)cc1)C(=O)O` (configuration not stated), the melting point lay within 116 to 118 °C.
The same measure for `N#CCCOC(=O)NC(=O)C(c1ccccc1)c1ccccc1`: 113 °C.
Turning to `CCC1CC(=O)N(Cc2ccc(NC(C)=O)cc2)N=C1c1ccc(OC)c(OC)c1` (configuration not stated), the melting point came out at 133 °C.
`NC(=NO)c1ccc(I)cc1` showed a melting point of 155 to 161 °C.
`COC1C(CO)OC(n2cnc3c(N)ncnc32)C1(C)O` (configuration not stated): the melting point is 180 °C.
As for `CC(C)c1ccc(N(Cc2ccc(N(C)C)cc2)C(=O)C2CCCc3ccc(C(C)C)cc32)cc1` (configuration not stated), the figure is 123 to 125 °C.
As to `O=C1OC(c2ccccc2)C2CCc3cc(OCCCC(F)(F)F)ccc3N12` (configuration not stated), the melting point worked out at 130 °C.
As for `CC1(C)Oc2ccc(S(=O)(=O)C(F)(F)F)cc2C(N2Cc3cccc([N+](=O)[O-])c3C2=O)C1O` (configuration not stated), the figure is 283 to 284 °C; as for `NCCc1cccc(N2C(=O)N(c3ccccc3Br)Cc3cnc(Nc4ccccc4)nc32)c1`, 130 °C.
The same measure for `CC(C)(C)c1ccc(C(=O)NC(=N)N)cc1`: 255 to 258 °C; for `CCCCCc1c(-c2ccc3cc(OCc4nnn[nH]4)ccc3c2)n(Cc2ccccc2)c2ccccc12`: 109 to 112 °C; for `CC1(CCN2CCN(C(C)(C)C)C(=O)C2)Cn2cc([N+](=O)[O-])nc2O1` (configuration not stated): 153 to 154 °C.
`CC(C)(C)OC(=O)Cn1c2ccccc2c2c(N3CCCC3)nc(N3CCCC3)nc21` displayed a melting point of 131 to 133 °C.
Turning to `O=C1O[C@@H](Cn2ccnn2)CN1c1ccc(-c2ccc(C3=NOC(CS(=O)(=O)CCO)C3)nc2)c(F)c1` (some centres not stated), the melting point was 210 °C.
As for `CCC1Nc2c(C)cccc2-n2cccc21` (configuration not stated), the figure is 65 to 68 °C.
The same measure for `Nc1ccc(Cl)c(O)c1`: 115 to 117 °C; for `CCCCCCCCNP(N)(N)=O`: 102 to 114 °C.
The same measure for `COC(=O)C(C)(C)Cc1c(C(=O)C2CC2)c2cc(OCc3ccc4ccccc4n3)c(C(=O)C3CC3)cc2n1Cc1ccc(Cl)cc1`: 166 to 167 °C.
As for `Cc1cc(C)n(-c2nc(Nc3cc(C(F)(F)F)cc(C(F)(F)F)c3)c3ccccc3n2)n1`, the melting point fell in the range of 169 to 172 °C.
The same measure for `COc1ccc(-c2nc(Sc3ccccc3OC)[nH]c2-c2ccc(OC)cc2)cc1`: 161 °C; for `COc1nccnc1OCC(O)CN1CCC(N2CCc3ccccc3C2=O)CC1` (configuration not stated): 167 to 169 °C; for `CC(C)(C)NCC(O)COc1ccccc1C=Cc1cccc2c1CC(=O)N2` (configuration not stated): 112 °C.
`CN1CCN(C(=O)c2ccc(-c3cnc4c(c3)N(Cc3cc(F)c(F)cc3F)C(=O)CN4)cc2)CC1`: the melting point worked out at 238 °C.
The same measure for `O=Cc1c(Cl)ccc(C(=O)O)c1Cl`: 188 to 190 °C; for `O=C1C(=O)c2ccccc2C2=C1SCC1(CCN(CCCc3ccccc3)CC1)O2`: 112 to 114 °C; for `N#Cc1nn(-c2c(Cl)cc(C(F)(F)F)cc2Cl)c(N)c1SC(F)(F)C(F)(F)F`: 134 to 136 °C.
The compound `NC1CCCN(c2ncc3ncnc(Nc4ccc(F)c(Cl)c4)c3n2)C1` (configuration not stated) displayed a melting point of 172 to 175 °C.
On to `CC[C@@H](c1ccccc1)N(Cc1ccc(C(=O)OC)cc1)S(=O)(=O)c1ccc(C(F)(F)F)cc1`, for which the melting point is 70 to 72 °C.
As to `COCC1(O)CCN(c2ccc(N3C[C@H](CNC(C)=O)OC3=O)cc2)CC1`, the melting point was in the range of 152 to 154 °C.
The same measure for `O=C(O)CCC(=NO)c1ccc(-c2ccccc2F)cc1`: 150 to 152 °C; for `CCOc1cccc(-c2ccc(C3=CCN(S(=O)(=O)CC(=O)NO)CC3)cc2C)c1`: 151 to 153 °C; for `Cc1c2c(c(Cc3ccc(C(C)C)cc3)c(C)c1NC(=O)NCCO)OCC2`: 176 to 177 °C.
The same measure for `C=CCN(C(=O)Nc1cc(C)c(S(=O)(=O)C[N+](=O)[O-])c(C)c1)c1ccccc1`: 164 to 165 °C; for `O=C(O)C(=O)c1ccc2c(c1)Cc1ccccc1-2`: 135 to 137 °C; for `NC(=O)c1cnn2cccc2c1Nc1ccccc1`: 247 °C.
As for `c1ccc(CNn2cnnc2-c2ccc(CN3CCCCCC3)s2)cc1`, the figure is 79 to 81 °C.
On to `CN(C)Cc1ccc([C@H]2CC[C@H](O)CC2)cc1`, for which the melting point was in the range of 63 to 65 °C.
The same measure for `COc1ccc([N+](=O)[O-])c(Nc2ccccc2O)n1`: 206 to 207 °C; for `O=C(c1ccccc1)c1ccc(OCc2ccccc2)cc1S`: 122 to 123 °C.
`CNC(=S)NS(=O)(=O)c1cc2c(cc1OC)OCCC2CNC(=O)c1cc(Cl)ccc1OC` (single isomer, unassigned; (+)) registered a melting point of 201 °C.
The same measure for `CCCCC(=O)Oc1ccc(-c2nc(-c3ccc(Cl)cc3)c(CC(=O)O)s2)cc1`: 197 to 199 °C; for `Cc1ccc2c(c1)C(c1ccc(OCC(=O)O)cc1)C(=O)O2` (configuration not stated): 198 to 203 °C; for `Cn1c([N+](=O)[O-])cnc1C1=NO[C@@H]2CCCCCCCCCC[C@@H]12` (relative stereo): 121 to 122 °C.
The same measure for `Cc1oc2ccc(N)cc2c(=O)c1C`: 202 to 204 °C; for `O=NSC1(CCO)C2CC3CC(C2)CC1C3` (configuration not stated): 77 to 79 °C; for `CCc1cc(Nc2ccc(NC(=O)c3ccccc3S(=O)(=O)O)cc2)n2nccc2n1`: more than 320 °C.
As for `COP(=O)(OC)C(c1ccc(F)cc1)(c1ccc(F)cc1)c1ccc(Cl)cc1`, the figure is 136 to 137 °C; as for `COc1c(F)cc(F)c(OC)c1-c1ccc(C[C@H](NC(=O)c2c(Cl)cccc2Cl)C(=O)O)cc1`, 201 to 202 °C; as for `COc1cc2ncc(C#N)c(Nc3cccc(CO)c3)c2cc1OC`, 250 to 255 °C.
As for `O=C(O)Cc1ccc(-n2cc(F)cn2)cc1`, the melting point lay in the range of 165 to 167 °C.
For the compound `Oc1cccc2sncc12`, the melting point is 133 to 134 °C.
The same measure for `CC12CCC3C4CCC(=O)C=C4CC(CCCCCCCCCCCO[Si](C)(C)C(C)(C)C)C3C1CCC2=O` (configuration not stated): 65 °C; for `CC1CN2CC(=O)N(C)c3ccc(Cl)cc3C2(c2ccccc2)O1` (configuration not stated): 142 to 143 °C.
As for `Cc1cc(CNC(=O)c2sc(N3C[C@@H](C)N(Cc4ccc(F)cc4)C3=O)nc2C)no1`, the figure is 139 to 140 °C; as for `O=P1(c2ccc(Cl)cc2)c2ccccc2CN1c1ccccc1` (configuration not stated), 180 to 182 °C.
For the compound `CC(=O)N1CCc2nc(Nc3nc(-c4ccccc4)cs3)nc(-c3ccccc3)c2C1`, the melting point was 130 to 132 °C.
As for `CCOC(=O)c1cnc2onc(C)c2c1OCC`, the figure is 62 °C; as for `O=C1C=C(Oc2ccc(C3CCCC3)cc2)C(O)O1` (configuration not stated), 101 to 103 °C.
As for `O=c1[nH]c2ccccc2n1CCCCN1CCC(c2c[nH]c3ccccc23)CC1`, the figure is 196 °C; as for `Cc1nn(CCN)c(C)c1Cc1cc(Cl)cc(Cl)c1`, 70 to 72 °C; as for `O=S1(=O)N=C(c2ccc(Cl)cc2)N(c2cc(Cl)cc(Cl)c2)c2ccncc21`, 284 to 286 °C.
The same measure for `COc1cc(OCc2ccccn2)ccc1/C=C/c1cc(/C=C/c2ccc(OCc3ccccn3)cc2OC)[nH]n1`: 195 to 197 °C; for `Cc1ccccc1OCCOS(N)(=O)=O`: 81.5 to 83 °C; for `O=C(Nc1ccccc1)Nc1ccnc(Br)c1`: 188 to 189 °C.
As for `c1cncc(CCCN2CCc3[nH]c4ccccc4c3C2)c1`, the melting point fell in the range of 223 to 225 °C.
As for `O=[N+]([O-])c1ccc(-c2ccc(I)cc2C(F)(F)F)c(C(F)(F)F)c1`, the figure is 67 to 68 °C.
As for `CSc1nnc(-c2nn(C)c(C)c2S(N)(=O)=O)o1`, the figure is 156 to 158 °C; as for `O=C(O)C1COc2ccc(O)cc2O1` (configuration not stated), 204 °C; as for `CC(C)(C)c1cc(CCC(=O)NNC(=O)C=Cc2ccccc2)cc(C(C)(C)C)c1O`, 224 to 225 °C.
`CC(C)(C)OC(=O)Nc1ccc2c(c1)OCC(=O)N2` displayed a melting point of 200 to 203 °C.
As for `COc1ccc(C=NO)cc1OCCCCCc1ccccc1`, the figure is 65 to 67 °C; as for `COc1cc(C(=O)NS(=O)(=O)c2ccccc2)ccc1CN1CCOc2ccc(NC(=O)CC3CCCC3)cc21`, 190 to 192 °C.
For the compound `CC(C)CCOc1ccc(-c2c(Cl)c(CCl)nc3sc4c(c23)CCN(Cc2ccccc2)C4)cc1`, the melting point was in the range of 149 to 150 °C.
The compound `CN(C(=O)C(F)(F)F)C(C(=O)O)c1ccccc1` (configuration not stated) registered a melting point of 124 to 126 °C.
Compound `Cc1cc(-c2nc3cccnn3c2-c2ccnc(NC(=O)NCC(F)(F)F)c2)ccc1F` displayed a melting point of 229 to 230 °C.
As for `Cc1ccc(-c2ccc(S(=O)(=O)N3CCN(C(=O)C4CCN(c5ccncc5)CC4)CC3)cc2)cc1`, the figure is 213 to 217 °C.
Turning to `CCOC(=O)c1cnn(-c2ccc(OC)cc2)c1N`, the melting point was 209 to 211 °C.
For the compound `COc1cc(OC)cc(C2(O)C(=O)Nc3ccc(Cl)cc32)c1` (configuration not stated), the melting point was 191 °C.
As for `COC(=O)N(C)n1c(C)nc(N2CCc3ccccc3CC2)c(C#N)c1=O`, the figure is 120 to 122 °C.
The same measure for `CC(=O)NC1CCS(=O)(=O)c2sc(S(N)(=O)=O)cc21` (configuration not stated): 263 to 265 °C; for `O=C(NC1CN2CCC1CC2)c1ccccc1Cc1ccccc1` (racemic): 187 to 188 °C.
